Results from ChEMBL document CHEMBL1201862, “PubChem BioAssay data set” (2004).
Calls of active or inactive are those of the source.

Columns and labels:
Cytochrome P450 3A4 = Cytochrome P450 3A4 (Homo sapiens, UniProt P08684);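 further: CYP3A4 tested as one member of a cytochrome P450 panel screen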
Cytochrome P450 1A2 = biological target: T1, Cytochrome P450 1A2 (Homo sapiens, UniProt P05177);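 further: PubChem cytochrome P450 panel assay, CYP1A2 panel member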
T1 sequence (P05177 whole entry): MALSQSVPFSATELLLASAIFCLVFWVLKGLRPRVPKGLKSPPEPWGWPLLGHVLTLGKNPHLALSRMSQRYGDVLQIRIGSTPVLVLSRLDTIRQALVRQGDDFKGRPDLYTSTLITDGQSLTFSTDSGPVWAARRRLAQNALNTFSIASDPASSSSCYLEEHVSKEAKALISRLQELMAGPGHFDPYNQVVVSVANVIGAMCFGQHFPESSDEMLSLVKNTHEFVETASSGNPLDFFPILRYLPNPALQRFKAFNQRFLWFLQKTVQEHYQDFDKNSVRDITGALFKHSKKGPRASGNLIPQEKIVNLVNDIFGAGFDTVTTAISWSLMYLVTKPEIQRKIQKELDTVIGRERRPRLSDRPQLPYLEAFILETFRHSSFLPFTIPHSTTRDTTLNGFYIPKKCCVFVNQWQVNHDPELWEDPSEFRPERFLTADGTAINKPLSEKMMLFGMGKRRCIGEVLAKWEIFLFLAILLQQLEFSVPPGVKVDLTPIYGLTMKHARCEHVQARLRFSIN

cells = assay type: functional, cell-based
BJ [1] = experiment: BJ-TERT-LT-ST fibroblast viability loss – cell-based, RAS-independent, luminescence, dose response (AID 1935); assay type: functional; details: Homo sapiens;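 further: BJ fibroblasts immortalized with TERT plus LT and ST oncogenes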
BJ [2] = experiment: growth inhibition of engineered Ras-driven BJ cells – cell-based, alamar blue fluorescence, cherrypicked samples, dose response (AID 2631); assay type: functional; details: Homo sapiens;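 further: confirmatory dose-response assay in RAS-dependent BJ fibroblasts engineered with TERT, LT and ST, with cytotoxicity read by fluorescence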
Beta-galactosidase = Beta-galactosidase (Escherichia coli, UniProt Q8VNN2); experiment: detection-enzyme interference by beta-gal modulators – biochemical, E. coli enzyme, set 3, artefact control for CCR6 antagonist project, dose response (AID 504712); assay type: functional
[3] = biological target: Sphingosine 1-phosphate receptor 1 (Homo sapiens, UniProt P21453); assay type: functional;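 further: Tango beta-arrestin reporter U2OS cells stimulated with S1P near its EC80; inhibitor potency meaning antagonism of receptor activation by the natural agonist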
[4] = Luminescence Cell-Based Dose Response HTS to Identify Inhibitors of 5'UTR Stem-Loop Driven Prion Protein mRNA Translation in H4 Neuroglioblastoma Cells. [Related pubchem assays: 1827 (Project Summary), 1813 (Primary HTS)]; assay type: functional
Nonstructural protein 1 = Nonstructural protein 1 (Influenza A virus, UniProt Q194T2); assay type: functional, Influenza A virus (A/California/07/2009(H1N1))
Caspase-3 = biological target: T2, Caspase-3 (Homo sapiens, UniProt P42574); experiment: Dose-response confirmation of uHTS inhibitor hits of Sentrin-Specific Protease 8 in a Caspase-3 Fluorescence assay.; assay type: functional
T2 sequence (P42574 whole entry): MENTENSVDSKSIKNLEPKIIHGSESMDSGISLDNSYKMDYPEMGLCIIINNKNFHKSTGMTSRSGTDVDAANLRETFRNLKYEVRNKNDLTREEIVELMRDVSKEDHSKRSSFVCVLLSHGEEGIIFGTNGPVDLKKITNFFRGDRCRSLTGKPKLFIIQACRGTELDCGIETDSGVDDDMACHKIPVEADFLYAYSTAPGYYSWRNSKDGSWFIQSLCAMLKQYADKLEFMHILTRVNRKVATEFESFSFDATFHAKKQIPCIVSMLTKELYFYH

[5] = biological target: T3, Sentrin-specific protease 8 (Homo sapiens, UniProt Q96LD8); assay type: functional;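 further: kinetic enzyme assay of SENP8 cleaving a Nedd8 protein substrate, dose-response confirmation of screening hits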
T3 sequence (Q96LD8 whole entry): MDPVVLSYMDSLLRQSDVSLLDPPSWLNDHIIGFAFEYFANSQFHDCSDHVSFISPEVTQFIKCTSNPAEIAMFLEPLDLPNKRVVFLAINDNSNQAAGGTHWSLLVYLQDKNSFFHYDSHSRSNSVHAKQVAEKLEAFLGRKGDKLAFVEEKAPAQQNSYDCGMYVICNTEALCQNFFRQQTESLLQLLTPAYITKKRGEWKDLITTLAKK

[6] = biological target: T4, Alkaline phosphatase, tissue-nonspecific isozyme (Homo sapiens, UniProt P05186); experiment: activation of tissue-nonspecific alkaline phosphatase – biochemical, TNAP isozyme, mouse IAP uHTS hits, selectivity assay for mouse IAP activator project, dose response (AID 488880); assay type: functional
T4 sequence (P05186 whole entry): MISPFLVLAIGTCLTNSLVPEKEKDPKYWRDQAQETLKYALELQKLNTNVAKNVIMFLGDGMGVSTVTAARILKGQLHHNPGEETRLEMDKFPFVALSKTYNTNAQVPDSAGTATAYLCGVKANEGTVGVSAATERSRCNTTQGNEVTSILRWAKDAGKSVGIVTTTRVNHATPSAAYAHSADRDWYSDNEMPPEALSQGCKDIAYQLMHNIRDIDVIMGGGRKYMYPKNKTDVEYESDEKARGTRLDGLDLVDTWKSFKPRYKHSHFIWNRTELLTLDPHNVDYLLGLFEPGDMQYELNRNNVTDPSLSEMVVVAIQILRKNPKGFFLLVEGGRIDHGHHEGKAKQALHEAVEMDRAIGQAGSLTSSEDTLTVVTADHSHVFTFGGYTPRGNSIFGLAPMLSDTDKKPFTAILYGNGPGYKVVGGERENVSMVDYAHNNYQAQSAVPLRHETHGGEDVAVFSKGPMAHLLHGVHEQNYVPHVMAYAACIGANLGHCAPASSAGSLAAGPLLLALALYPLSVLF

[7] = biological target: Induced myeloid leukemia cell differentiation protein Mcl-1 (Homo sapiens, UniProt Q07820); assay type: functional
[8] = biological target: Intestinal-type alkaline phosphatase (Homo sapiens, UniProt P09923); experiment: activation of human intestinal alkaline phosphatase – biochemical, dose response (AID 488873); assay type: functional
Intestinal-type alkaline phosphatase, sequence (P09923 whole entry): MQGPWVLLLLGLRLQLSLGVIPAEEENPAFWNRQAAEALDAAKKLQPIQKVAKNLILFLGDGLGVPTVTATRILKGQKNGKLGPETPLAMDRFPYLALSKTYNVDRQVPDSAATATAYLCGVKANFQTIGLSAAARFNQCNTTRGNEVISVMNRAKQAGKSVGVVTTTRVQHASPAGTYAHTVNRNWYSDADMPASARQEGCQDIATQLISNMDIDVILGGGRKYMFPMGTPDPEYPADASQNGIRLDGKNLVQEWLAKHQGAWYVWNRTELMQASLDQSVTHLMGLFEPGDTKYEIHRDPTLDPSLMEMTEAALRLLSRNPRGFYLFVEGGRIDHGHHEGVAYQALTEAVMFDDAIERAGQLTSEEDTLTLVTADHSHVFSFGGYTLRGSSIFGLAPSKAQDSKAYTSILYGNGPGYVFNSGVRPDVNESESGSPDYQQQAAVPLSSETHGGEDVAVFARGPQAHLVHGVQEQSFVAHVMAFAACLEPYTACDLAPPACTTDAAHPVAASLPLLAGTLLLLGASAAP

Induced myeloid leukemia cell differentiation protein Mcl-1, sequence (Q07820 whole entry): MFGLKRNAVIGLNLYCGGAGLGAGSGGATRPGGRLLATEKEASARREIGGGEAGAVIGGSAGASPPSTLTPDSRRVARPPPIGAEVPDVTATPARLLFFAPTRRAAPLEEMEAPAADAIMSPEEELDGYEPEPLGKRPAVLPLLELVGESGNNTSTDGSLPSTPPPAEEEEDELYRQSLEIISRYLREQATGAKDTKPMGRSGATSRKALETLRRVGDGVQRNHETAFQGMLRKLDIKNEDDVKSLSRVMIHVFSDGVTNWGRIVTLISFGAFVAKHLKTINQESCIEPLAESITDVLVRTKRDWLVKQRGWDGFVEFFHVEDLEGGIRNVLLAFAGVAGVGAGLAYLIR
Cytochrome P450 3A4, sequence (P08684 whole entry): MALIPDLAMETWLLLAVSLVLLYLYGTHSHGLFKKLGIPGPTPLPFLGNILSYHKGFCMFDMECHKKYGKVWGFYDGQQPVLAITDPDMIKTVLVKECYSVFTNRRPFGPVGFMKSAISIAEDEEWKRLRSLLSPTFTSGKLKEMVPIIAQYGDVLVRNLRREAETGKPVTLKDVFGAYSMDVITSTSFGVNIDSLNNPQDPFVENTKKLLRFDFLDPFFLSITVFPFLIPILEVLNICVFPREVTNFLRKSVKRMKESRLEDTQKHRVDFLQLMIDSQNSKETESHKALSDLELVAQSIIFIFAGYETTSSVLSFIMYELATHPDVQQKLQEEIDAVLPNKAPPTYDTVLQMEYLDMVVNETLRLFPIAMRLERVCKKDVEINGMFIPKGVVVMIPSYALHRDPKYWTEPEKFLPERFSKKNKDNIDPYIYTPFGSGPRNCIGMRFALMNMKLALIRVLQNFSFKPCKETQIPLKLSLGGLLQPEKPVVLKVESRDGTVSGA
Beta-galactosidase, sequence (Q8VNN2 whole entry): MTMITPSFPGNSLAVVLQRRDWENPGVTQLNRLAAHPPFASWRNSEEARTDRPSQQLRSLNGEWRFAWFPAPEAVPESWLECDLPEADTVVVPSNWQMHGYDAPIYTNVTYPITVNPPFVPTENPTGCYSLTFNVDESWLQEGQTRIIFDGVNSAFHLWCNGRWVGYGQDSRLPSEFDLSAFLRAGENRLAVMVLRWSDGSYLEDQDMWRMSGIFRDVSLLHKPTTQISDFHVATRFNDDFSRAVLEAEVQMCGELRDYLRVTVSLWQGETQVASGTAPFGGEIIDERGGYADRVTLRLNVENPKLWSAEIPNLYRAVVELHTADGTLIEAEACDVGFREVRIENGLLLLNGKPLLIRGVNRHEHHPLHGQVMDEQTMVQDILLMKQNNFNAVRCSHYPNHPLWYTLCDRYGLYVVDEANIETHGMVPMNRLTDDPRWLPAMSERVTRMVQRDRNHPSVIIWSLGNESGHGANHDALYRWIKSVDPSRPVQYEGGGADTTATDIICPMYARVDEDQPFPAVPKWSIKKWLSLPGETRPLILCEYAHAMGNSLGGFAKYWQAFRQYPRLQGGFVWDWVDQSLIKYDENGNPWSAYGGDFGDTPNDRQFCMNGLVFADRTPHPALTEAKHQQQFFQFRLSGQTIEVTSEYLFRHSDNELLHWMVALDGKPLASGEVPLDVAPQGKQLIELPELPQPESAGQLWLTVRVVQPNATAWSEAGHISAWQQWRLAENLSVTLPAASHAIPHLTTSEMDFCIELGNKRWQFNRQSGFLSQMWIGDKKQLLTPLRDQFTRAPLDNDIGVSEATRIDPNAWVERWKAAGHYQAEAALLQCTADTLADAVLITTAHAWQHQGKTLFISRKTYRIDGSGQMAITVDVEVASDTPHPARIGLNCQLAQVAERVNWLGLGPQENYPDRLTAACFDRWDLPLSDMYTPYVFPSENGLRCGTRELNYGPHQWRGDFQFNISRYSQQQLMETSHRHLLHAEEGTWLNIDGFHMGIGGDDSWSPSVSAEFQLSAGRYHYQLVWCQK
Nonstructural protein 1, sequence (Q194T2 whole entry): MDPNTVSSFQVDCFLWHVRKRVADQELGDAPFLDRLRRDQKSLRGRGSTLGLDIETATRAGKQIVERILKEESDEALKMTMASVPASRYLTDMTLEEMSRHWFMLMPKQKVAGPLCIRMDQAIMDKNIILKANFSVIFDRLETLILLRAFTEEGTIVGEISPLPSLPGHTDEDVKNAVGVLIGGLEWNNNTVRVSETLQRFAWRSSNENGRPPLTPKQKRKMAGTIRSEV
Sphingosine 1-phosphate receptor 1, sequence (P21453 whole entry): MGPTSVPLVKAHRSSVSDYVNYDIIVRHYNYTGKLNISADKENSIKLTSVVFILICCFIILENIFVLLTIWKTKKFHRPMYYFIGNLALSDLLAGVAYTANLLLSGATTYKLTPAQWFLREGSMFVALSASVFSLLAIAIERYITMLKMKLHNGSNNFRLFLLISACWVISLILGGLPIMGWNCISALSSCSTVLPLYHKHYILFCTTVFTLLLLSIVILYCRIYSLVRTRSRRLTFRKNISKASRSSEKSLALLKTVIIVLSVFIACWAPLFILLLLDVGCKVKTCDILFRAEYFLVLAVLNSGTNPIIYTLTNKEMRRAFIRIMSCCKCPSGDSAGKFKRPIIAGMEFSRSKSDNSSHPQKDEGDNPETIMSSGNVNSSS

With O=C(/C=C/c1ccco1)Nc1ccc(Oc2ccccc2)cc1 the AC50 (Cytochrome P450 3A4) was 39.8 µM (inconclusive), the AC50 (Cytochrome P450 1A2) was 20 µM (inconclusive) and the EC50 (cells) was 6.08 µM (active). The EC50 (BJ [1]) was > 150 µM (inconclusive) and the EC50 (BJ [2]) was 14.6 µM (active).

In the case of O=C1C(Nc2ccc(O)cc2)=C/C(=N/S(=O)(=O)c2cccs2)c2ccccc21, the IC50 (Beta-galactosidase) is reported as > 66.6 µM (inactive), the IC50 [3] is reported as 4.23 µM (active) and the EC50 [4] is reported as 0.236 µM (active). The IC50 (Nonstructural protein 1) was 17.9 µM (active).

With COC(=O)C(O)(c1c(C)[nH]n(-c2ccccc2)c1=O)C(F)(F)F (centres undefined) the IC50 (Caspase-3) was 68.9 µM (inactive) and the IC50 [5] was 1.15 µM (active).

With CC1CC(=O)c2c(cc3c(-c4c(O)cc(O)c5c(O)c6c(cc45)OC(C)CC6=O)c(O)cc(O)c3c2O)O1 (centres undefined) [CEPHALOCHROMIN] the EC50 [6] was 26.7 µM (active), the IC50 [7] was 1.49 µM (active) and the EC50 [8] was 21.7 µM (active).
